From US11661419B2, “Benzimidazole derivative compounds and uses thereof” (Pfizer Inc., priority 2019, dated 2023) come the findings set out here.

Assay [1] concerns the target Tropomyosin receptor kinase A (TRKA, NTRK1) (Homo sapiens (Human), UniProt P04629). In words: TRKA (NTRK1) enzyme Z'-LYTE assay. It is filed as biochemical. Conditions: arithmetic mean of count n; test compound 1 uM, ATP 1 mM. The procedure: Tropomyosin Receptor Kinase a (TRKA) Activity, % Inhibition
TRKA, also known as neurotrophic tyrosine kinase receptor type 1 (NTKR1) activity was determined by measuring the effect of a test compound on the activity against the NTRK1 enzyme using the ThermoFisher Z'-LYTE Assay fluorescence-based coupled enzyme format (www.thermofisher.com/selectscreen). […] The resulting effect value for the tested compound was compared to the assay controls to determine the % inhibition (%).

The subject of assay [2] is IL-2 in activated CD4+ human T-cells. Put plainly: IL-2 inhibition in supernatants from activated CD4+ human T-cells (cisbio HTRF). The conditions noted are these: T-cell; geometric mean of count n; CD3/CD28-expanded human CD4+ T cells stimulated with ImmunoCult, 20 to 24 hrs. It is filed as cell-based. The procedure: IL-2-Inhibition Activity, IC50 (uM)
IL-2 inhibition activity in supernatants from activated CD4+ human T-cells was determined by measuring the effect of a test compound on the activity using the cisbio HTRF™ technology.
Human CD4+ T cells were activated with CD3/CD28 for 3 days and expanded for an additional 4-6 days (7 to 9 days total). On day 0, frozen CD4+ T cells were thawed, treated with CD3/CD28 Dynabeads, and incubated at 37° C./5% CO2. On day 3, the beads were removed, and the cells were diluted to 5×10^5 cells/cm^2, placed in G-Rex10 flask, and incubated at 37° C./5% CO2. On day 7 to day 9 the cells were removed from the G-Rex flasks, counted and diluted back to 1×10^6 cells/ml in standard tissue culture flask.
The expanded CD4+ T-cells were centrifuged at 300×g for 10 minutes and resuspended to 0.5 million cells per ml (30,000 cells/well). 60 μl of CD4+ T cells were added per well to a 384 well plate containing 0.1 μL of varying concentrations of test compound in DMSO. The plates were incubated for 15 min at 37° C./5% CO2. 20 μl of diluted ImmunoCult™ ([…] Technologies, 1:12.5 in T cell assay media) were added to all wells of the plate (1:50 final assay concentration). The plates were incubated for an additional 20 to 24 hrs at 37° C./5% CO2. The plates were centrifuged at 300×g for 10 minutes. 16 μL of supernatant was removed and combined with 4 μl of IL-2 HTRF Abs. (cisbio kit). Plates were incubated for 3 hours at RT and read with an EnVision plate reader at 665 nm and 615 nm wavelengths.

SMILES strings stand for the structures.

Sequence of Tropomyosin receptor kinase A (TRKA, NTRK1) (P04629 33-796): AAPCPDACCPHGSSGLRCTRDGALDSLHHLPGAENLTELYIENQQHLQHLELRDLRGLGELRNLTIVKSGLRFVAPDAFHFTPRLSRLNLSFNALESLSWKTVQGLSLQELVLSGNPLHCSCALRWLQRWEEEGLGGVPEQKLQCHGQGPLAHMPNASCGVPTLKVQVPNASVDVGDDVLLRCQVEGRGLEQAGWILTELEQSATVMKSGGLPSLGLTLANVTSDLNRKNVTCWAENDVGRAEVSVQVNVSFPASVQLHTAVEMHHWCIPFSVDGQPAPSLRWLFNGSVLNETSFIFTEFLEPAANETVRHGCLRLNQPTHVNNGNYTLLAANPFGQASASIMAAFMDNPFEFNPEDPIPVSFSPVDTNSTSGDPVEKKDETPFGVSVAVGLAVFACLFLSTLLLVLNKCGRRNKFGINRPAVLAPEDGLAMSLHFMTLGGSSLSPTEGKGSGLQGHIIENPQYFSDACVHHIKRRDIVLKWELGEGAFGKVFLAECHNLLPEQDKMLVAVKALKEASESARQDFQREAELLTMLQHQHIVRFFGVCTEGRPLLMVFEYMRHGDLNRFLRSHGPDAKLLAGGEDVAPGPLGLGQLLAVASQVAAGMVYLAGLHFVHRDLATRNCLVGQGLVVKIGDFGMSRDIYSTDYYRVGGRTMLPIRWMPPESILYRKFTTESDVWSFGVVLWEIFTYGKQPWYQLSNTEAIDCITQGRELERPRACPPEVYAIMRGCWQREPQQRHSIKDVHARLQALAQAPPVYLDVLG

Consider `C[C@@H](C(=O)N(C)c1cc2nc(-c3n[nH]c4c3C[C@@H]3C[C@]3(C)C4)[nH]c2cc1C#N)N1CCOCC1` [Example 21, (S)—N-(6-cyano-2-((4aS,5aR)-5a-methyl-1,4,4a,5,5a,6-hexahydrocyclopropa[f]indazol-3-yl)-1H-benzo[d]imidazol-5-yl)-N-methyl-2-morpholinopropanamide], for which the inhibition at 1 µM in assay [1] was determined as 91%. This molecule also came in with an IC50 in assay [2] of 98 nM.

As for `C[C@@H](C(=O)N(C)c1cc2nc(-c3n[nH]c4c3C[C@@H]3C[C@]3(C)C4)[nH]c2c(F)c1F)N1CCOCC1` [Example 24, (S)—N-(6,7-difluoro-2-((4aS,5aR)-5a-methyl-1,4,4a,5,5a,6-hexahydrocyclopropa[f]indazol-3-yl)-1H-benzo[d]imidazol-5-yl)-N-methyl-2-morpholinopropanamide], the inhibition at 1 µM in assay [1] stood at 105%. For the same molecule, the IC50 in assay [2] amounted to 106 nM.

Take `CCN(C(=O)[C@H](C)N1CCOCC1)c1cc2nc(-c3n[nH]c4c3C[C@@H]3C[C@]3(C)C4)[nH]c2c(F)c1F` [Example 25, (S)—N-(6,7-difluoro-2-((4aS,5aR)-5a-methyl-1,4,4a,5,5a,6-hexahydrocyclopropa[f]indazol-3-yl)-1H-benzo[d]imidazol-5-yl)-N-ethyl-2-morpholinopropanamide]: the inhibition at 1 µM in assay [1] was determined as 101%. In assay [2], this molecule gave an IC50 of 101 nM.

For `Cc1cc2[nH]c(-c3n[nH]c4c3C[C@@H]3C[C@]3(C)C4)nc2cc1N(C)C(=O)CN1CCO[C@H](CO)C1` [Example 26, 2-((S)-2-(hydroxymethyl)morpholino)-N-methyl-N-(6-methyl-2-((4aS,5aR)-5a-methyl-1,4,4a,5,5a,6-hexahydrocyclopropa[f]indazol-3-yl)-1H-benzo[d]imidazol-5-yl)acetamide], the inhibition at 1 µM in assay [1] came out at 99%. Besides, 212 nM corresponded to half-maximal inhibition in assay [2] (IC50).

Consider `Cc1cc2[nH]c(-c3n[nH]c4c3C[C@@H]3C[C@]3(C)C4)nc2cc1N(C)C(=O)CN1CCO[C@@H](C)C1` [Example 31, N-Methyl-N-(6-methyl-2-((4aS,5aR)-5a-methyl-1,4,4a,5,5a,6-hexahydrocyclopropa[f]indazol-3-yl)-1H-benzo[d]imidazol-5-yl)-2-((S)-2-methylmorpholino)acetamide], for which the inhibition at 1 µM in assay [1] was 99%. In assay [2], half-maximal inhibition (IC50) required 75 nM.

Turning to `Cc1cc2[nH]c(-c3n[nH]c4c3C[C@@H]3C[C@]3(C)C4)nc2cc1N(C)C(=O)CN1C[C@@H](C)O[C@H](C)C1` [Example 32, 2-((2R,6R)-2,6-Dimethylmorpholino)-N-methyl-N-(6-methyl-2-((4aS,5aR)-5a-methyl-1,4,4a,5,5a,6-hexahydrocyclopropa[f]indazol-3-yl)-1H-benzo[d]imidazol-5-yl)acetamide], the inhibition at 1 µM in assay [1] turned out to be 99%. The concentration for half-maximal inhibition (IC50) in assay [2] came to 83 nM.

Regarding `Cc1cc2[nH]c(-c3n[nH]c4c3C[C@@H]3C[C@]3(C)C4)nc2cc1N(C)C(=O)CN1CCOCC1` [Example 34, N-Methyl-N-(6-methyl-2-((4aS,5aR)-5a-methyl-1,4,4a,5,5a,6-hexahydrocyclopropa[f]indazol-3-yl)-1H-benzo[d]imidazol-5-yl)-2-morpholinoacetamide], the inhibition at 1 µM in assay [1] is 98%. This molecule displayed an IC50 in assay [2] of 103 nM.

`C[C@@H](C(=O)N(C)c1cc(Br)c2[nH]c(-c3n[nH]c4c3C[C@@H]3C[C@]3(C)C4)nc2c1)N1CCOCC1` [Example 37, (S)—N-(7-bromo-2-((4aS,5aR)-5a-methyl-1,4,4a,5,5a,6-hexahydrocyclopropa[f]indazol-3-yl)-1H-benzo[d]imidazol-5-yl)-N-methyl-2-morpholinopropanamide]: the inhibition at 1 µM in assay [1] came to 96%. The IC50 in assay [2] stood at 130 nM.

As to `C[C@@H](C(=O)N(C)c1cc(C#N)c2[nH]c(-c3n[nH]c4c3C[C@@H]3C[C@]3(C)C4)nc2c1)N1CCOCC1` [Example 38, (S)—N-(7-cyano-2-((4aS,5aR)-5a-methyl-1,4,4a,5,5a,6-hexahydrocyclopropa[f]indazol-3-yl)-1H-benzo[d]imidazol-5-yl)-N-methyl-2-morpholinopropanamide], the inhibition at 1 µM in assay [1] stood at 96%. Besides, in assay [2], 85 nM corresponded to half-maximal inhibition (IC50).

In the case of `COc1cc(N(C)C(=O)[C@H](C)N2CCOCC2)cc2nc(-c3n[nH]c4c3C[C@@H]3C[C@]3(C)C4)[nH]c12` [Example 40, (S)—N-(7-methoxy-2-((4aS,5aR)-5a-methyl-1,4,4a,5,5a,6-hexahydrocyclopropa[f]indazol-3-yl)-1H-benzo[d]imidazol-5-yl)-N-methyl-2-morpholinopropanamide], in assay [1], the inhibition at 1 µM is 96%. In assay [2], this molecule registered an IC50 of 103 nM.

Turning to `C[C@@H](C(=O)N(C)c1cc(C(F)(F)F)c2[nH]c(-c3n[nH]c4c3C[C@@H]3C[C@]3(C)C4)nc2c1)N1CCOCC1` [Example 41, (S)—N-methyl-N-(2-((4aS,5aR)-5a-methyl-1,4,4a,5,5a,6-hexahydrocyclopropa[f]indazol-3-yl)-7-(trifluoromethyl)-1H-benzo[d]imidazol-5-yl)-2-morpholinopropanamide], the inhibition at 1 µM in assay [1] came to 96%. Besides, 176 nM corresponded to half-maximal inhibition in assay [2] (IC50).

On to `COCc1cc(N(C)C(=O)[C@H](C)N2CCOCC2)cc2nc(-c3n[nH]c4c3C[C@@H]3C[C@]3(C)C4)[nH]c12` [Example 42, (S)—N-(7-(methoxymethyl)-2-((4aS,5aR)-5a-methyl-1,4,4a,5,5a,6-hexahydrocyclopropa[f]indazol-3-yl)-1H-benzo[d]imidazol-5-yl)-N-methyl-2-morpholinopropanamide], for which the inhibition at 1 µM in assay [1] came out at 98%. The IC50 in assay [2] was 200 nM.

Regarding `C[C@@H](C(=O)N(C)c1cc(Cl)c2[nH]c(-c3n[nH]c4c3C[C@@H]3C[C@]3(C)C4)nc2c1)N1CCOCC1` [Example 43, (S)—N-(7-chloro-2-((4aS,5aR)-5a-methyl-1,4,4a,5,5a,6-hexahydrocyclopropa[f]indazol-3-yl)-1H-benzo[d]imidazol-5-yl)-N-methyl-2-morpholinopropanamide], the inhibition at 1 µM in assay [1] stood at 96%. This molecule had an IC50 in assay [2] of 171 nM.

For `CCc1cc(N(C)C(=O)[C@H](C)N2CCOCC2)cc2nc(-c3n[nH]c4c3C[C@@H]3C[C@]3(C)C4)[nH]c12` [Example 44, (S)—N-(7-ethyl-2-((4aS,5aR)-5a-methyl-1,4,4a,5,5a,6-hexahydrocyclopropa[f]indazol-3-yl)-1H-benzo[d]imidazol-5-yl)-N-methyl-2-morpholinopropanamide], in assay [1], the inhibition at 1 µM was 94%. Inhibition in assay [2] was half-maximal at 219 nM (IC50).

Take `C[C@@H](C(=O)N(C)c1cc(CO)c2[nH]c(-c3n[nH]c4c3C[C@@H]3C[C@]3(C)C4)nc2c1)N1CCOCC1` [Example 45, (S)—N-(7-(hydroxymethyl)-2-((4aS,5aR)-5a-methyl-1,4,4a,5,5a,6-hexahydrocyclopropa[f]indazol-3-yl)-1H-benzo[d]imidazol-5-yl)-N-methyl-2-morpholinopropanamide]: the inhibition at 1 µM in assay [1] came out at 97%. This molecule also displayed an IC50 in assay [2] of 365 nM.

Turning to `Cc1c(F)c(N(C)C(=O)[C@H](C)N2CCOCC2)cc2nc(-c3n[nH]c4c3C[C@@H]3C[C@]3(C)C4)[nH]c12` [Example 47, (S)—N-(6-fluoro-7-methyl-2-((4aS,5aR)-5a-methyl-1,4,4a,5,5a,6-hexahydrocyclopropa[f]indazol-3-yl)-1H-benzo[d]imidazol-5-yl)-N-methyl-2-morpholinopropanamide], the inhibition at 1 µM in assay [1] worked out at 98%. Besides, in assay [2], the IC50 came to 161 nM.

As for `C[C@@H](C(=O)N(C)c1cc(C(F)F)c2[nH]c(-c3n[nH]c4c3C[C@@H]3C[C@]3(C)C4)nc2c1)N1CCOCC1` [Example 48, (S)—N-(7-(difluoromethyl)-2-((4aS,5aR)-5a-methyl-1,4,4a,5,5a,6-hexahydrocyclopropa[f]indazol-3-yl)-1H-benzo[d]imidazol-5-yl)-N-methyl-2-morpholinopropanamide], the inhibition at 1 µM in assay [1] was 95%. Also, it took 207 nM to reach half-maximal inhibition in assay [2] (IC50).

For the molecule `COCCOc1cc2[nH]c(-c3n[nH]c4c3C[C@@H]3C[C@]3(C)C4)nc2cc1N(C)C(=O)[C@H](C)N1CCOCC1` [Example 49, (S)—N-(6-(2-methoxyethoxy)-2-((4aS,5aR)-5a-methyl-1,4,4a,5,5a,6-hexahydrocyclopropa[f]indazol-3-yl)-1H-benzo[d]imidazol-5-yl)-N-methyl-2-morpholinopropanamide], in assay [1], the inhibition at 1 µM was determined as 98%. In assay [2], this molecule returned a concentration for half-maximal inhibition (IC50) of 100 nM.

As for `Cc1cc(N(C)C(=O)[C@H](C)N2CCOCC2)cc2nc(-c3n[nH]c4c3C[C@@H]3C[C@]3(C)C4)[nH]c12` [Example 50, (S)—N-methyl-N-(7-methyl-2-((4aS,5aR)-5a-methyl-1,4,4a,5,5a,6-hexahydrocyclopropa[f]indazol-3-yl)-1H-benzo[d]imidazol-5-yl)-2-morpholinopropanamide], in assay [1], the inhibition at 1 µM was 97%. For the same molecule, in assay [2], half-maximal inhibition (IC50) required 126 nM.

By inhibition is commonly meant the change of the read-out against control, counted positive when it falls. A word on the IC50: it is the concentration needed to halve the response being measured. A higher IC50 goes with lower potency.
